Measurements as given in US11370847B2, “Single domain antibodies directed against intracellular antigens” (Singh Biotechnology, LLC, priority 2014, dated 2022).
Values joined by “and” are separate entries in the source; they are usually repeats but may differ in a detail not shown here. Equal values may be shown once. Read-outs that look alike come from different tables or passages of the source.

Columns and labels:
MDA-MB-231 xenograft = details: for % Inhibition Mean / % Inhibition Median / Tumor Mean Absolute / Tumor Median Absolute / Individual Tumor Measurements: Group 4, 2 mg/kg IP QD×14; for Individual Tumor Measurements: listed as anti-STAT3 bacterial VHH13
MCF-7 xenograft = details: for Caliper Measurement W / Caliper Measurement L / Tumor Volume TV: individual animals; for Caliper Measurement W / Caliper Measurement L / Tumor Volume TV / Tumor Volume TV, group Mean: VHH13 1 mg/kg ip tid × 14
DU145 xenograft = assay: DU145 prostate cancer xenograft model; details: SBT-100 5 mg/kg bw i.p. BID×14
[1] = Group 2, 1 mg/kg ip tid × 14 first Day 2 doses

## anti-STAT3 VHH13: anti-STAT3 single-domain antibody, SEQ ID NO:3; bacterially produced, referred to as SBT-100
MDA-MB-231 xenograft; Group 3: 2 mg/kg bw IP BID×14
  mean growth inhibition: 75.2
  mean tumor size (±S.E.) at termination (day 42): 41.15±13.21
  mean tumor size (±SE) at day 14 of dosing: 58.27±22.54
MDA-MB-231 xenograft; Group 3: 2 mg/kg bw IP BID×14, (tumor regression)
  % treatment/control: −54.4%
MDA-MB-231 xenograft; Group 3: 2 mg/kg bw IP BID×14, control 20.56 days
  tumor doubling time: 30.07 days
MDA-MB-231 xenograft; day 20 (6/23/15)
  % Inhibition Mean: −14.18%
  % Inhibition Median: −1.80%
  Tumor Mean Absolute: 105.60 mm^3
  Tumor Median Absolute: 100.88 mm^3
  Individual Tumor Measurements: 88.56 mm^3 and 78.73 mm^3 and 113.20 mm^3 and 141.91 mm^3
MDA-MB-231 xenograft; day 23 (6/26/15)
  % Inhibition Mean: 32.37%
  % Inhibition Median: 16.23%
  Tumor Mean Absolute: 93.99 mm^3
  Tumor Median Absolute: 96.82 mm^3
  Individual Tumor Measurements: 108.35 mm^3 and 51.51 mm^3 and 85.29 mm^3 and 130.82 mm^3
MDA-MB-231 xenograft; day 26 (6/29/15)
  % Inhibition Mean: 54.06%
  % Inhibition Median: 43.65%
  Tumor Mean Absolute: 79.20 mm^3
  Tumor Median Absolute: 78.40 mm^3
  Individual Tumor Measurements: 105.80 mm^3 and 54.20 mm^3 and 69.30 mm^3 and 87.49 mm^3
MDA-MB-231 xenograft; day 29 (7/2/15)
  % Inhibition Mean: 46.13%
  % Inhibition Median: 38.19%
  Tumor Mean Absolute: 105.54 mm^3
  Tumor Median Absolute: 103.05 mm^3
  Individual Tumor Measurements: 102.94 mm^3 and 70.39 mm^3 and 103.16 mm^3 and 145.68 mm^3
MDA-MB-231 xenograft; day 33 (7/6/15)
  % Inhibition Mean: 40.66%
  % Inhibition Median: 36.92%
  Tumor Mean Absolute: 131.44 mm^3
  Tumor Median Absolute: 129.05 mm^3
  Individual Tumor Measurements: 183.39 mm^3 and 84.29 mm^3 and 103.20 mm^3 and 154.89 mm^3
MDA-MB-231 xenograft; day 36 (7/9/15)
  % Inhibition Mean: 55.94%
  % Inhibition Median: 54.32%
  Tumor Mean Absolute: 105.10 mm^3
  Tumor Median Absolute: 102.39 mm^3
  Individual Tumor Measurements: 159.78 mm^3 and 55.83 mm^3 and 87.15 mm^3 and 117.63 mm^3
MDA-MB-231 xenograft; day 42 (7/15/15)
  % Inhibition Mean: 43.03%
  % Inhibition Median: 48.55%
  Tumor Mean Absolute: 145.51 mm^3
  Tumor Median Absolute: 124.47 mm^3
  Individual Tumor Measurements: 291.06 mm^3 and 42.03 mm^3 and 130.64 mm^3 and 118.31 mm^3
MDA-MB-231 xenograft; Group 4: 2 mg/kg bw IP QD×14
  growth delay: 6.61 days
  mean growth inhibition: 55.9
  mean tumor size (±S.E.) at termination (day 42): 145.51±52.32
  mean tumor size (±SE) at day 14 of dosing: 131.44±22.86
MDA-MB-231 xenograft; Group 4: 2 mg/kg bw IP QD×14, (tumor inhibition)
  % treatment/control: 10.28%
MDA-MB-231 xenograft; Group 4: 2 mg/kg bw IP QD×14, control 20.56 days
  tumor doubling time: 27.17 days
MDA-MB-231 xenograft; SBT-100 5 mg/kg bw i.p. BID×14
  mean tumor size (±S.E.) at termination (day 28): 91.72±33.17
  mean tumor size (±SE) at last day of dosing (Day 14): 83.81±22.65
MDA-MB-231 xenograft; SBT-100 5 mg/kg bw i.p. BID×14, (tumor inhibition)
  % treatment/control: 13.35%
MDA-MB-231 xenograft; SBT-100 5 mg/kg bw i.p. BID×14, control […] days
  tumor doubling time: 111.6 days
MDA-MB-231 xenograft; SBT-100 5 mg/kg bw i.p. BID×14, p=0.006
  mean tumor growth inhibition at the end of the study: 85.8%
MCF-7 xenograft; 1 mg/kg ip tid x 14, control group 25 days
  time for the group to reach a tumor volume of 1000 mm^3: 36 days
MCF-7 xenograft; Day 1
  Caliper Measurement W: 6 mm
MCF-7 xenograft; Day 1, 1 mg/kg
  Caliper Measurement L: 6 mm (2×) and 7 mm (2×)
MCF-7 xenograft; Day 4 (Jul. 30, 2015), 1 mg/kg
  Tumor Volume TV: 196 mm^3 and 126 mm^3 and 144 mm^3
MCF-7 xenograft; Day 4, 1 mg/kg
  Caliper Measurement L: 8 mm (2×) and 7 mm
  Caliper Measurement W: 7 mm and 6 mm (2×)
MCF-7 xenograft; Day 8, 1 mg/kg
  Caliper Measurement L: 8 mm
  Caliper Measurement W: 7 mm
MCF-7 xenograft; Day 11, 1 mg/kg
  Caliper Measurement L: 8 mm
  Caliper Measurement W: 9 mm and 7 mm
MCF-7 xenograft; Day 15
  Tumor Volume TV, group Mean: 346.5 mm^3
MCF-7 xenograft; Day 15, 1 mg/kg
  Caliper Measurement L: 9 mm
  Caliper Measurement W: 9 mm
  Tumor Volume TV: 405 mm^3 and 288 mm^3
MCF-7 xenograft; Day 18, 1 mg/kg
  Caliper Measurement L: 9 mm
  Caliper Measurement W: 9 mm
MCF-7 xenograft; Day 22, 1 mg/kg
  Caliper Measurement L: 11 mm
  Caliper Measurement W: 9 mm
MCF-7 xenograft; Day 25, 1 mg/kg
  Caliper Measurement L: 12 mm
  Caliper Measurement W: 12 mm and 9 mm
MCF-7 xenograft; Day 29, 1 mg/kg
  Caliper Measurement L: 13 mm
  Caliper Measurement W: 13 mm
MCF-7 xenograft; Day 32
  Tumor Volume TV, group Mean: 500 mm^3
  Tumor Volume TV: 500 mm^3
MCF-7 xenograft; Day 36
  Caliper Measurement L: 12 mm
  Caliper Measurement W: 12 mm
MCF-7 xenograft; Day 39
  Caliper Measurement L: 13 mm
  Caliper Measurement W: 13 mm
MCF-7 xenograft; [1]
  % TGD: 42%
  T-C: 9.7
DU145 xenograft
  % treatment/control: 74.8%
  mean tumor size (±S.E.) at termination (day 28): 601.83±131.51
  mean tumor size (±SE) at last day of dosing (Day 14): 364.14±51.64
DU145 xenograft; control 14.57 days
  tumor doubling time: 18.19 days
DU145 xenograft; p=0.29
  mean tumor growth inhibition at the end of the study: 26.6%
